Experimental data taken from patent US8466107B2, “Fibrin-binding peptides and conjugates thereof” (Bracco Imaging SpA, priority 2006, dated 2013).
Bridge positions count the residues as written; N and C are the ends. Square brackets hold non-standard residues; d marks the D form. Peptide text beside a SMILES is read from it. * marks the point of attachment. 5FAM = O=C1OC2(c3ccc(O)cc3Oc3cc(O)ccc32)c2ccc(C(=O)*)cc21; Cha = N[C@@H](CC1CCCCC1)C(=O)O

Biological target: DDE (fibrin-derived polypeptide) (Homo sapiens, UniProt P02671+P02675+P02679)
Sequence (P02671 124-216): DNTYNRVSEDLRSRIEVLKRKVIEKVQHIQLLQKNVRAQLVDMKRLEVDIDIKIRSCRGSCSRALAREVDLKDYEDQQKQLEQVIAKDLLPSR
Sequence (P02675 164-491): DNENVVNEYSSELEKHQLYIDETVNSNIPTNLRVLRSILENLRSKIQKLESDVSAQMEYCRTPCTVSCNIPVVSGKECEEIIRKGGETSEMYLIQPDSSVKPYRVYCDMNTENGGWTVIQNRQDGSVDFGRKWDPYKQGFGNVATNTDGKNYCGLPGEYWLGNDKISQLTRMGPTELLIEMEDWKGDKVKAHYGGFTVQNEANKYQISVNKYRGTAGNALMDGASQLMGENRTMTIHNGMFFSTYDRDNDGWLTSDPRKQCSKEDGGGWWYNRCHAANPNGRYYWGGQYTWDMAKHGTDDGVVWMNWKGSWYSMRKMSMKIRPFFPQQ
Sequence (P02679 114-432): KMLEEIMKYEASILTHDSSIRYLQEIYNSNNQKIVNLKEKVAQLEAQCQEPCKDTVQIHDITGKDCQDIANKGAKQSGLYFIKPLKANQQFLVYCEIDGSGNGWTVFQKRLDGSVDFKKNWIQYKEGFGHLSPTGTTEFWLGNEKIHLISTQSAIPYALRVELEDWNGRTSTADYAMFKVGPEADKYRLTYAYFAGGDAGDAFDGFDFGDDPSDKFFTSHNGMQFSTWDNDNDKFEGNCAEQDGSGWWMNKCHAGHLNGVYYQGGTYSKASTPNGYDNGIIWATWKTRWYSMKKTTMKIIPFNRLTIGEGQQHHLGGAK
Sequence (P02671 36-97): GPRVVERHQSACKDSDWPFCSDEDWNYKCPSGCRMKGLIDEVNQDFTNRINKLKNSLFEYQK
Sequence (P02675 45-152): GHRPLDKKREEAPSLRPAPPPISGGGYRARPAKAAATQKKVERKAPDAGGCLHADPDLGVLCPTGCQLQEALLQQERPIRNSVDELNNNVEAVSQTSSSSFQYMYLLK
Sequence (P02679 27-88): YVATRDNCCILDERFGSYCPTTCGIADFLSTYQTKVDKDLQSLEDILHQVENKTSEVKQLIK
Assay: Direct binding fluorescence polarization (FP) assay using 5-carboxyfluorescein labeled peptides
Conditions: 20 nM CF5-labeled peptide, serial dilutions of DDE, anisotropy read at 485 nm; read-out: KD (μM) Direct Binding (n = 2)

Kd [µM]	SMILES
0.05	C[C@@H]1NC(=O)[C@@H]2CCCN2C(=O)[C@@H](NC(=O)[C@@H]2CCCN2C(=O)[C@H](CCC(N)=O)NC(=O)[C@H](Cc2c[nH]c3ccccc23)NC(=O)CNC(=O)[C@@H](N)CCCNC(=N)N)CSSC[C@@H](C(=O)N[C@@H](Cc2c[nH]c3ccccc23)C(=O)N[C@@H](CC(=O)O)C(=O)N2CCC[C@H]2C(=O)NCC(=O)NCC(=O)NCC(=O)N[C@@H](CCCCNC(=O)c2ccc3c(c2)C(=O)OC32c3ccc(O)cc3Oc3cc(O)ccc32)C(N)=O)NC(=O)[C@H](CC2CCCCC2)NC(=O)[C@H]([C@@H](C)O)NC(=O)[C@H](Cc2c[nH]c3ccccc23)NC(=O)[C@H](CO)NC(=O)[C@H](CCC(=O)O)NC1=O [Seq054-CF5, RGWQPC*PAESWT-Cha-C*WDPGGGK(CF5)-NH2] (H-RGWQPCPAESWT[Cha]CWDPGGGK(5FAM)-NH2; disulfide 6-14)
0.08	CC(=O)NCC(=O)N[C@@H](Cc1c[nH]c2ccccc12)C(=O)N[C@@H](CCC(N)=O)C(=O)N1CCC[C@H]1C(=O)N[C@H]1CSSC[C@@H](C(=O)N[C@@H](Cc2c[nH]c3ccccc23)C(=O)N[C@@H](CC(=O)O)C(=O)N2CCC[C@H]2C(=O)NCC(=O)NCC(=O)NCC(=O)N[C@@H](CCCCNC(=O)c2ccc3c(c2)C(=O)OC32c3ccc(O)cc3Oc3cc(O)ccc32)C(N)=O)NC(=O)[C@H](CC2CCCCC2)NC(=O)[C@H]([C@@H](C)O)NC(=O)[C@H](Cc2c[nH]c3ccccc23)NC(=O)[C@H](CO)NC(=O)[C@H](CCC(=O)O)NC(=O)[C@H](C)NC(=O)[C@@H]2CCCN2C1=O [Seq055-CF5, Ac-GWQPC*PAESWT-Cha-C*WDPGGGK(CF5)-NH2] (Ac-GWQPCPAESWT[Cha]CWDPGGGK(5FAM)-NH2; disulfide 5-13)
0.06	C[C@@H]1NC(=O)[C@@H]2CCCN2C(=O)[C@@H](NC(=O)[C@@H]2CCCN2C(=O)[C@H](CCC(N)=O)NC(=O)[C@H](Cc2c[nH]c3ccccc23)NC(=O)[C@@H](N)CCCNC(=N)N)CSSC[C@@H](C(=O)N[C@@H](Cc2c[nH]c3ccccc23)C(=O)N[C@@H](CC(=O)O)C(=O)N2CCC[C@H]2C(=O)NCC(=O)NCC(=O)NCC(=O)N[C@@H](CCCCNC(=O)c2ccc3c(c2)C(=O)OC32c3ccc(O)cc3Oc3cc(O)ccc32)C(N)=O)NC(=O)[C@H](Cc2ccccc2)NC(=O)[C@H]([C@@H](C)O)NC(=O)[C@H](Cc2c[nH]c3ccccc23)NC(=O)[C@H](CO)NC(=O)[C@H](CCC(=O)O)NC1=O [Seq056-CF5] (H-RWQPCPAESWTFCWDPGGGK(5FAM)-NH2; disulfide 5-13)
0.03	C[C@@H]1NC(=O)[C@@H]2CCCN2C(=O)[C@@H](NC(=O)[C@@H]2CCCN2C(=O)[C@H](CCC(N)=O)NC(=O)[C@H](Cc2c[nH]c3ccccc23)NC(=O)[C@@H](N)CCCNC(=N)N)CSSC[C@@H](C(=O)N[C@@H](Cc2c[nH]c3ccccc23)C(=O)N[C@@H](CC(=O)O)C(=O)N2CCC[C@H]2C(=O)NCC(=O)NCC(=O)NCC(=O)N[C@@H](CCCCNC(=O)c2ccc3c(c2)C(=O)OC32c3ccc(O)cc3Oc3cc(O)ccc32)C(N)=O)NC(=O)[C@H](CC2CCCCC2)NC(=O)[C@H]([C@@H](C)O)NC(=O)[C@H](Cc2c[nH]c3ccccc23)NC(=O)[C@H](CO)NC(=O)[C@H](CCC(=O)O)NC1=O [Seq057-CF5, RWQPC*PAESWT-Cha-C*WDPGGGK(CF5)-NH2] (H-RWQPCPAESWT[Cha]CWDPGGGK(5FAM)-NH2; disulfide 5-13)
